According to PMC12114633, “α-Glucosidase Inhibition Mechanism and Anti-Hyperglycemic Effects of Flavonoids from Astragali Radix and Their Mixture Effects” (Pharmaceuticals, 2025):
Like-named read-outs stand apart in the source and are kept apart here.

Columns and labels:
blood glucose = details: 50 mg/kg, cited from earlier work
[1] = molecular target: T1, Saccharomyces cerevisiae α-glucosidase (Saccharomyces cerevisiae, UniProt P53341); assay: biochemical; details: IC50, α-glucosidase 0.2 U/mL, 5 mM pNPG, PBS pH 6.8, 37 °C
T1 construct: purchased Shanghai Yuanye Biotechnology Co., Shanghai, China Lot No. M23HS178879 (catalogue number not given)
Description: (§1) The α-glucosidase inhibitory effects of flavonoids were evaluated as in a previous report with slight modifications (including changes in the concentrations of the enzyme, substrate, and Na2CO3). Briefly, 50 μL of phosphate-buffered saline (PBS, 0.1 M, pH 6.8), the test compound, and α-glucosidase (0.2 U/mL) were preincubated in a 96-well plate at 37 °C for 10 min. The reaction was then initiated by adding 50 μL of 5 mM pNPG as the substrate. Subsequently, the 96-well plate was incubated for an additional 30 min at 37 °C, then 50 μL of 0.2 M Na2CO3 was added to terminate the reaction. Absorbance was measured at under 405 nm.

α-glucosidase [2] = molecular target: T2, α-glucosidase (Saccharomyces cerevisiae, UniProt P53341); assay: Inhibitory kinetic analysis (Lineweaver–Burk plot); assay type: biochemical; details: Lineweaver–Burk plots, pNPG 0.31–20 mM
T2 construct: purchased Shanghai Yuanye Biotechnology Co., Shanghai, China Lot No. M23HS178879 (catalogue number not given)
Description: The type of inhibition was determined by using the kinetics curve and the Lineweaver–Burk plot. […] These compounds were incubated with α-glucosidase at 37 °C for 30 min. After incubation, various concentrations of pNPG (0.31–20 mM) were added, and absorbance was measured at 405 nm. The Lineweaver–Burk plot was obtained by plotting 1/[S] on the x-axis and 1/v on the y-axis, where [S] represents substrate concentration and v represents the reaction velocity.

α-glucosidase [3] = molecular target: T2, α-glucosidase; assay: CD spectroscopy, secondary structure of α-glucosidase (BeStSel); details: for β-turn: free enzyme 11.7; for β-sheet: free enzyme 28.8; for random coil: free enzyme 45.2; for α-helix: free enzyme 14.4
Description: CD spectra in the far-UV region (190–250 nm) were scanned by using a CD spectrometer (JASCO-1.5 Tokyo, Japan). […] The slit width was set to 1 nm, and the baseline was calibrated with PBS (phosphate buffered saline). CD spectra were averaged over three scans under a constant nitrogen flow, with the buffer signal subtracted. The results were analyzed using the BeStSel database (https://bestsel.elte.hu/index.php, accessed on 16 May 2025).

α-glucosidase [4] = molecular target: T2, α-glucosidase; assay: biochemical; assay type: binding
Description: SPR analysis was performed using the Biacore 8K system (GE Healthcare, Uppsala, Sweden). α-Glucosidase (0.05 mg/mL) was fixed on the CM5 sensor chip by an amine coupling kit. Subsequently, various concentrations of the 16 flavonoids dissolved in 5% DMSO were continuously injected onto the surface of α-glucosidase coated surface. After each sample injection, the sensor chip surface was washed and regenerated with running buffer (PBS) at a flow rate of 30 µL/min. According to the 1:1 Langmuir model, the equilibrium dissociation constant (KD) was calculated by the Biacore evaluation software. For sensorgrams without significant kinetic features, the KD values were calculated using the steady-state analysis.

α-glucosidase [5] = molecular target: T2, α-glucosidase; assay: Mixture effects of flavonoid combinations on α-glucosidase; assay type: biochemical; details: calculated from the dose–response curve
Description: as §1
The inhibitory activity of the composition was evaluated using the same method described in Section 3.2. […] The combination index (CI, Formula (3)) was subsequently used to assess the interactions between the compounds [60].(2) Y=Bottom+Top−Bottom/1+10^^((LogIC50−X)×HillSlope)
In Formula (3), (D)j represents the concentration of component j in the mixture needed to achieve an effect of x, while (Dx)j denotes the concentration of component j required to produce the same effect when acting alone. Here, x refers to the inhibition rate produced by the composition, and n indicates the number of individual compounds in the composition.

normal C57BL/6J mice = assay: Oral sucrose test, postprandial blood glucose; assay type: in vivo; details: for Blood glucose levels: 30 min after sucrose 4 g/kg, n = 8, in mmol/L (unit assumed); for Rate of blood glucose reduction: vs model group, 30 min after sucrose
From the text: Male C57BL/6J mice of SPF grade, aged 6–8 weeks and weighing 18–22 g, were obtained from the Experimental Animal Science Department of Peking University. The mice were housed in a controlled environment with a 12:12 light/dark cycle and a constant temperature. They were provided with standard pellet feed and given free access to drinking water. To ensure acclimatization, the mice were allowed to adjust to the diet and housing conditions for one week prior to the experiment. All animal experiments were performed in compliance with the relevant laws and institutional guidelines for the care and use of laboratory animals in China. The experiments were approved by the Laboratory Animal Management and Ethics Committee of Peking University (LA2021443). Additionally, the certification number for the laboratory animal personnel is 1120111300011.
The 16 flavonoids were subsequently evaluated for their potential antihyperglycemic effects by using the oral sucrose test, which is commonly used to evaluate intestinal α-glucosidase inhibition in vivo [62]. Normal C57BL/6J mice were randomly divided into model groups and the 16 flavonoid compound groups (n = 8 per group), respectively. The flavonoids at different concentrations were suspended in 0.5% sodium carboxymethyl cellulose (CMC-Na). […] Fifteen minutes after drug administration, the mice were given a sucrose solution (4 g/kg). Blood samples were collected from the tail vein at 30 min after sucrose loading, and blood glucose levels were measured using an Accu-Chek Performa glucometer (Roche Diagnostics, SN: 79508621393, Shanghai, China). The rate of blood glucose reduction was calculated using the following Formula (4):(4) The rate of blood glucose reduction%=the model blood glucose-the sample blood glucose/the model blood glucose×100%

α-glucosidase [6] = details: literature values, reference given; read-out: IC50 in References; cited from earlier work
[7] = molar ratio 10:1, α-glucosidase 4 μM
[8] = molar ratio 40:1, α-glucosidase 4 μM

T2 sequence (P53341 whole entry): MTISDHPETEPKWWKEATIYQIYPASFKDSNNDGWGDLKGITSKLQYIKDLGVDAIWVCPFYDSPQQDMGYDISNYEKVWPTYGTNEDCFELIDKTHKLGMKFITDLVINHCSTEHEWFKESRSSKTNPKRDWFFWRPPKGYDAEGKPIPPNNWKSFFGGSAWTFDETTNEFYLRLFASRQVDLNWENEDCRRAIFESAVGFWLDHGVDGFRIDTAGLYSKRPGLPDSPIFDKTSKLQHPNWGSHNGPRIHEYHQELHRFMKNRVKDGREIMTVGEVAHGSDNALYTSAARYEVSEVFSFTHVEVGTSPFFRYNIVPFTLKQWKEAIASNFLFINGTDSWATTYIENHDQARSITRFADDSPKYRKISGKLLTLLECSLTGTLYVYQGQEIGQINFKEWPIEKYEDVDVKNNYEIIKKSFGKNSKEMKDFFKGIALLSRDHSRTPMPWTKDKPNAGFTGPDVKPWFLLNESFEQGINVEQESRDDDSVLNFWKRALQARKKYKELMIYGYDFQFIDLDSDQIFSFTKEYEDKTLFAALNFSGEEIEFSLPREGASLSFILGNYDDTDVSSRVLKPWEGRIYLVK
T1 sequence (P53341 whole entry): as above

SMILES: O=c1c(O)c(-c2ccc(O)c(O)c2)oc2cc(O[C@@H]3O[C@H](CO)[C@@H](O)[C@H](O)[C@H]3O)c(O)c(O)c12 [quercetagetin-7-O-glucoside]
- reduction of blood glucose (blood glucose; ref 51 (Tian et al.)): 16.7%

SMILES: COc1ccc(-c2coc3cc(O[C@@H]4O[C@H](CO)[C@@H](O)[C@H](O)[C@H]4O)ccc3c2=O)cc1O [C16, calycosin-7-O-glucoside]
- IC50 [1]: 563 ± 43.6 µM
- type of inhibition on α-glucosidase (α-glucosidase [2]): mixed-type inhibitors
- β-turn (α-glucosidase [3]; [7]): 11.7%
- β-sheet (α-glucosidase [3]; [7]): 29.5%
- random coil (α-glucosidase [3]; [7]): 45.6%
- β-turn (α-glucosidase [3]; [8]): 11.5%
- α-helix (α-glucosidase [3]; [8]): 12.1%
- β-sheet (α-glucosidase [3]; [8]): 27.7%
- random coil (α-glucosidase [3]; [8]): 48.6%
- α-helix (α-glucosidase [3]; molar ratio compound:α-glucosidase 10:1, α-glucosidase 4 μM): 13.3%
- Kd (α-glucosidase [4]): 364 µM
- IC05 (α-glucosidase [5]): 150.00 µM
- Blood glucose levels (normal C57BL/6J mice; 10 mg/kg oral): 15.01 ± 1.15
- Rate of blood glucose reduction (normal C57BL/6J mice; 10 mg/kg oral): 2.75%
- Blood glucose levels (normal C57BL/6J mice; 25 mg/kg oral): 13.71 ± 0.77
- Rate of blood glucose reduction (normal C57BL/6J mice; 25 mg/kg oral): 11.17%
- Blood glucose levels (normal C57BL/6J mice; 50 mg/kg oral): 12.78 ± 0.74
- Rate of blood glucose reduction (normal C57BL/6J mice; 50 mg/kg oral): 17.25%
- IC50 (α-glucosidase [6]): 174 µM

SMILES: C[C@@H]1O[C@@H](OC[C@H]2O[C@@H](Oc3cc4c(O)cc(O)cc4[o+]c3-c3ccc(O)cc3)[C@H](O)[C@@H](O)[C@@H]2O)[C@H](O)[C@H](O)[C@H]1O [pelargonidin-3-O-rutinoside]
- reduction of blood glucose (blood glucose; ref 52 (Xu et al.)): 18.5%
